Like-named read-outs stand apart in the source and are kept apart here.
How the values were obtained:
[1] = Cytotoxicity MTT assay (0.1–1000 µM), CC50; type: cell-based, Mus musculus; details: Mus musculus, NCTC clone 929 cells, NCTC clone 929, MTT, 48 h; read-out: CC50 Normal Cell Lines NCTC Clone 929
[2] = system: Encephalomyocarditis virus (EMCV); experiment: Antiviral activity assay (0.1–1000 µM), IC50; type: cell-based; details: Cardiovirus A, MOI 0.005, read-out: IC50 EMCV
Description: (§1) Antiviral properties of compounds 1e–1g, 1e[PF6], 8a–8d, and 9a were assessed against five viruses: Human herpesvirus 1 (HSV-1, VR-539), Human parainfluenza virus type 3 (HPIV-3, VR-93), Human adenovirus 5 (AdV5, VR-5), Human herpesvirus 5 (HCMV, VR-977), and Encephalomyocarditis virus (EMCV, VR-1479). Viruses were purchased from the American Type Culture Collection (ATCC, Manassas, VA, USA).
(§2) All tested compounds were dissolved in DMSO (dimethyl sulfoxide, Sigma-Aldrich, Darmstadt, Germany) and then suspended in Minimum Essential Medium (MEM; Sigma-Aldrich, Darmstadt, Germany) supplemented with 2% heat-inactivated fetal bovine serum (FBS; Sigma-Aldrich, Darmstadt, Germany), 2 mM L-glutamine (Sigma-Aldrich, Darmstadt, Germany), and 100 units/mL penicillin G with […] streptomycin (Sigma-Aldrich, Darmstadt, Germany).
(§3) Investigated cells were propagated in Minimum Essential Medium (MEM; Sigma-Aldrich, Darmstadt, Germany) supplemented with 10% heat-inactivated fetal bovine serum (FBS; Sigma-Aldrich, Darmstadt, Germany) and 100 units/mL penicillin G with […] streptomycin (Sigma-Aldrich, Darmstadt, Germany). After reaching 80–90% confluency, cells were harvested with trypsin (Life Technologies, Warsaw, Poland) and seeded into 96-well microplates at 2 × 10^5 cells/mL after overnight incubation of cells at 37 °C in a humidified atmosphere containing 5% CO2.
(§4) The culture medium was removed from confluent cells grown in 96-well microplates, and the cells were inoculated with virus solutions in MEM supplemented with 2% FBS and antibiotics (HSV-1 MOI 0.005, 1000 virions/mL; HPIV-3 MOI 0.01, 2000 virions/mL; AdV5 MOI 0.005, 1000 virions/mL; EMCV 0.005, 1000 virions/mL; HCMV 20 PFU/well (plaque-forming units per well). After a 1-h (HSV-1, HPIV-3, AdV5, and EMCV) or 2-h adsorption period (HCMV), residual viral particles were removed, and infected cells were further incubated with MEM supplemented with 2% FBS containing compound concentrations in the range from 0.1 to 1000 µM [38]. All experiments were carried out in triplicate. The cell monolayers were incubated with the investigated compounds at 37 °C in a humidified atmosphere containing 5% CO2 until a cytopathic effect (CPE) was visible. Viral infection was evaluated by the MTT assay (as described previously) or plaque reduction assay. HCMV plaques were counted under an inverted microscope, Olympus IX73 (Olympus, Tokyo, Japan). Antiviral activity was expressed as the concentration required to reduce the number of viral plaques to 50% of the control (virus-infected but untreated).

[3] = system: Human adenovirus 5 (AdV5); experiment: Antiviral activity assay (0.1–1000 µM), IC50; type: cell-based; details: Human mastadenovirus C; AdV5, MOI 0.005; read-out: IC50 AdV5
Description: as §1, §2, §3, §4

[4] = system: Human herpesvirus 1 (HSV-1); experiment: Antiviral activity assay (0.1–1000 µM), IC50; type: cell-based; details: Human alphaherpesvirus 1; HSV-1, MOI 0.005
Description: as §1, §2, §3, §4

[5] = system: Human parainfluenza virus type 3 (HPIV-3); experiment: Antiviral activity assay (0.1–1000 µM), IC50; type: cell-based
Description: as §1, §2, §3, §4

[6] = Cytotoxicity MTT assay (0.1–1000 µM), CC50; type: cell-based, Cercopithecus aethiops; details: Cercopithecus aethiops, Vero cells, read-out: CC50 Normal Cell Lines Vero
[7] = Cytotoxicity MTT assay (0.1–1000 µM), CC50; type: cell-based, Human; details: human, HepG2 cells, read-out: CC50 Cancer Cell Lines HepG2
[8] = Cytotoxicity MTT assay (0.1–1000 µM), CC50; type: cell-based, Human; details: human, HeLa cells, MTT, 48 h, read-out: CC50 Cancer Cell Lines HeLa
[9] = Cytotoxicity MTT assay (0.1–1000 µM), CC50; type: cell-based, Human; details: human, MRC-5 cells, MRC-5, MTT, read-out: CC50 Normal Cell Lines MRC-5
[10] = Cytotoxicity MTT assay (0.1–1000 µM), CC50; type: cell-based, Human; details: human, A549 cells, read-out: CC50 Cancer Cell Lines A549
[11] = system: Human herpesvirus 5 (HCMV); experiment: Antiviral activity assay (0.1–1000 µM), IC50, plaque reduction; type: cell-based; details: Human betaherpesvirus 5, 20 PFU/well
Description: as §1, §2, §3, §4

[12] = Cytotoxicity MTT assay (0.1–1000 µM), CC50; type: cell-based, Macaca mulatta; details: Macaca mulatta, LLC-MK2 cells, LLC-MK2, MTT, 48 h; read-out: CC50 Normal Cell Lines LLC-MK2
[13] = Cytotoxicity screening at 10 µM (MTT); type: cell-based, Human; details: human, MRC-5 cells, read-out: Cell line (viability %) MRC-5
[14] = Cytotoxicity screening at 10 µM (MTT); type: cell-based, Cercopithecus aethiops; details: Cercopithecus aethiops, Vero cells, read-out: Cell line (viability %) Vero
NCTC clone 929 cells = experiment: Cytotoxicity screening at 10 µM (MTT); type: cell-based, Mus musculus; details: 48 h
[15] = Cytotoxicity screening at 10 µM (MTT); type: cell-based, Macaca mulatta; details: Macaca mulatta, LLC-MK2 cells, read-out: Cell line (viability %) LLC-MK2
[16] = system: Encephalomyocarditis virus (EMCV); experiment: Antiviral screening at 10 µM; type: cell-based; details: Cardiovirus A, EMCV-infected cells, read-out: Cell line (viability %) EMCV
Description: as §1, with “1a, 1c, 1a[PF6], 1c[PF6], 9b[PF6], 9c[PF6], 10a–10d, 2a,” for “1e–1g, 1e[PF6], 8a–8d,”, “2b” for “9a”
as §2
(§5) Vero, LLC-MK2, NCTC clone 929, MRC-5, and HeLa cells were propagated in Minimum Essential Medium (MEM; Sigma-Aldrich, Darmstadt, Germany) supplemented with 10% heat-inactivated fetal bovine serum (FBS; Sigma-Aldrich, Darmstadt, Germany) and 100 units/mL penicillin G with […] streptomycin (Sigma-Aldrich, Darmstadt, Germany). Upon reaching 80–90% confluency, cells were harvested with 0.25% trypsin in 1 mM EDTA (Life Technologies, Warsaw, Poland) and seeded onto 96-well microplates at 2 × 10^5 cells/mL. After overnight incubation of cells at 37 °C in a humidified atmosphere containing 5% CO2, the culture medium was removed, and cells were inoculated with the respective virus solution in MEM supplemented with 2% FBS and antibiotics (HSV-1 MOI 0.005, 1000 virions/mL; HPIV-3 MOI 0.01, 2000 virions/mL; AdV5 MOI 0.005, 1000 virions/mL, EMCV MOI 0.005, 1000 virions/mL, HCMV 20 PFU (plaque forming units) per well). After a 1-h (HSV-1, HPIV-3, AdV5, and EMCV) or 2-h adsorption period (HCMV), the residual virus was removed, and the infected cells were further incubated with a 100 μL freshly prepared solution of tested compounds diluted with a maintenance medium supplemented with 2% FBS to obtain compound concentrations of 10 µM. The final concentration of DMSO in the medium was 0.1%. All experiments were carried out in triplicate. The cells monolayers were incubated with the compounds at 37 °C in a humidified atmosphere containing 5% CO2 until the typical cytopathic effect (CPE) was visible. Viral infection was evaluated by the MTT assay or plaque reduction assay (HCMV). After incubation with drugs, the cells were treated with 3-(4,5-dimethylthiazol-2-yl)-2,5-diphenyltetrazolium bromide dye solution (MTT, Sigma-Aldrich, Darmstadt, Germany) (25 μL, 5 mg/mL) for 2 h and lysed with solvent solution (100 μL) containing: DMF (Sigma-Aldrich, Darmstadt, Germany) (45 mL), SDS (Sigma-Aldrich, Darmstadt, Germany) (13.5 g), and distilled water (55 mL). After overnight incubation at 37 °C, the optical density at 550 nm and a reference wavelength of 670 nm were measured on a microplate spectrophotometer, Varioskan Lux (Thermo Fisher Scientific, Waltham, MA, USA). The number of HCMV plaques was counted under an inverted microscope Olympus IX73 (Olympus, Tokyo, Japan).

[17] = system: Human adenovirus 5 (AdV5); experiment: Antiviral screening at 10 µM; type: cell-based; details: AdV5-infected cells
Description: as §1, with “1a, 1c, 1a[PF6], 1c[PF6], 9b[PF6], 9c[PF6], 10a–10d, 2a,” for “1e–1g, 1e[PF6], 8a–8d,”, “2b” for “9a”
as §2, §5

[18] = system: Human herpesvirus 1 (HSV-1); experiment: Antiviral screening at 10 µM; type: cell-based; details: antiviral screening, HSV-1-infected cells
Description: as §1, with “1a, 1c, 1a[PF6], 1c[PF6], 9b[PF6], 9c[PF6], 10a–10d, 2a,” for “1e–1g, 1e[PF6], 8a–8d,”, “2b” for “9a”
as §2, §5

[19] = system: Human parainfluenza virus type 3 (HPIV-3); experiment: Antiviral screening at 10 µM; type: cell-based; details: antiviral screening, HPIV-3-infected cells
Description: as §1, with “1a, 1c, 1a[PF6], 1c[PF6], 9b[PF6], 9c[PF6], 10a–10d, 2a,” for “1e–1g, 1e[PF6], 8a–8d,”, “2b” for “9a”
as §2, §5

[20] = Cytotoxicity screening at 10 µM (MTT); type: cell-based, Human; details: human, HeLa cells, read-out: Cell line (viability %) HeLa
LLC-MK2 cells = experiment: Cytotoxicity MTT assay (0.1–1000 µM), CC50; type: cell-based, Macaca mulatta; details: Table S2, range 0.1-1000 µM, LLC-MK2; read-out: Cell line (CC50 M) LLC-MK2
[21] = Human respirovirus 3, HPIV-3, MOI 0.01, read-out: IC50 HPIV-3

Compound	CC50 at 48 h [1]	IC50 [2]	IC50 [3]	IC50 [4]	IC50 [5, 21]	CC50 at 48 h [6]	CC50 at 48 h [7]	CC50 at 48 h [8]	melting point	CC50 at 48 h [9]	CC50 at 48 h [10]	IC50 [11]	CC50 at 48 h [12]	also measured
Cc1c(C)[n+](OCc2ccccc2)cn1Cc1ccc(C(F)(F)F)cc1.[Br-] [Compound 8d, 3-Benzyloxy-4,5-dimethyl-1-[4-(trifluoromethyl)benzyl]imidazolium bromide]	283 ± 10.4 µM	> 283 µM	> 5.5 µM	> 229 µM	> 7.5e-06 M	229 ± 9.02 µM	322 ± 5.77 µM	5.5 ± 0.5 µM	180 to 182 °C (dec.)	59.7 ± 2.52 µM	5.07 ± 0.12 µM	> 59.7 µM	7.5 ± 1 µM	
Cc1c(C)[n+](Cc2ccccc2)cn1Cc1ccccc1 [Compound 1a, lepidiline A, reference compound]													< 80 µM	viability at 48 h, 10 µM [13]: 90.2%; IC50 ([5]; Table S4, range 0.1-1000 µM, HPIV-3, read-out: IC50 (M) HPIV-3): > 6.77e-05 M; viability at 48 h, 10 µM [14]: 90.5%; Cell line (viability %) NCTC clone 929 (NCTC clone 929 cells): 86.0%; viability at 48 h, 10 µM [15]: 76.3%; viability at 10 µM [16]: 7.4%; Cell line (viability %) AdV5 [17]: 45.8%; Cell line (viability %) HSV-1 [18]: 48.0%; Cell line (viability %) HPIV-3 [19]: 86.0%; viability at 48 h, 10 µM [20]: 43%; CC50 (LLC-MK2 cells): 67.7 ± 2.52 µM
Cc1c(C)[n+](Cc2cccc(OC(F)(F)F)c2)cn1Cc1ccccc1.[Cl-] [Compound 1f, 1-Benzyl-4,5-dimethyl-3-[3-(trifluoromethoxy)benzyl]imidazolium chloride]	48.3 ± 2.89 µM	> 48.3 µM	> 0.039 µM	> 38 µM	> 5.9e-05 M	38 ± 4 µM	152 ± 2 µM	0.039 ± 0.001 µM	108 to 110 °C	36.7 ± 2.31 µM	1.6 ± 0.173 µM	> 36.7 µM	59 ± 1 µM	
Cc1c(C)[n+](OCc2ccccc2)cn1Cc1cccc(OC(F)(F)F)c1.[Br-] [Compound 8b, 3-Benzyloxy-4,5-dimethyl-1-[3-(trifluoromethoxy)benzyl]imidazolium bromide]	90.7 ± 4.16 µM	> 90.7 µM	> 7.33 µM	> 143 µM	> 0.000257 M	143 ± 2.89 µM	163 ± 6.43 µM	7.33 ± 0.76 µM	108 to 110 °C	24.3 ± 2.08 µM	5.5 ± 0.5 µM	> 24.3 µM	257 ± 6.77 µM	
Cc1c(C)[n+](OCc2ccccc2)cn1Cc1ccccc1C(F)(F)F.[Br-] [Compound 8c, 3-Benzyloxy-4,5-dimethyl-1-(2-(trifluoromethyl)benzyl)imidazolium bromide]	28.5 ± 0.5 µM	> 28.5 µM	> 16 µM	> 53.7 µM	> 5.5e-05 M	53.7 ± 1.53 µM	95 ± 1 µM	16 ± 1 µM	123 to 125 °C	45.7 ± 3.79 µM	7.37 ± 0.32 µM	> 45.7 µM	55 ± 1 µM	
Cc1c(C)[n+](OCc2ccccc2)cn1Cc1cccc(F)c1.[Br-] [Compound 8a, 3-Benzyloxy-1-(3-fluorobenzyl)-4,5-dimethylimidazolium bromide]	257 ± 10.4 µM	> 257 µM	> 20 µM	> 250 µM	> 0.000327 M	250 ± 10 µM	361.7 ± 2.89 µM	20 ± 3.46 µM	124 to 126 °C	206 ± 8.61 µM	7.5 ± 0.5 µM	> 206 µM	327 ± 7.64 µM	
